Here are results for 23 compounds from patent US8541588B2, “Sulfonamide derivatives” (Pfizer Limited, priority 2009, dated 2013).

Some results are limits rather than exact numbers.

The first assay deals with T1, Nav1.7 (or SCN9A) channel; HEK cells stably transfected with hSCN9A (Homo sapiens, UniProt Q15858).
T1 construct: expressed in transfected cells
T1 sequence (Q15858 whole entry): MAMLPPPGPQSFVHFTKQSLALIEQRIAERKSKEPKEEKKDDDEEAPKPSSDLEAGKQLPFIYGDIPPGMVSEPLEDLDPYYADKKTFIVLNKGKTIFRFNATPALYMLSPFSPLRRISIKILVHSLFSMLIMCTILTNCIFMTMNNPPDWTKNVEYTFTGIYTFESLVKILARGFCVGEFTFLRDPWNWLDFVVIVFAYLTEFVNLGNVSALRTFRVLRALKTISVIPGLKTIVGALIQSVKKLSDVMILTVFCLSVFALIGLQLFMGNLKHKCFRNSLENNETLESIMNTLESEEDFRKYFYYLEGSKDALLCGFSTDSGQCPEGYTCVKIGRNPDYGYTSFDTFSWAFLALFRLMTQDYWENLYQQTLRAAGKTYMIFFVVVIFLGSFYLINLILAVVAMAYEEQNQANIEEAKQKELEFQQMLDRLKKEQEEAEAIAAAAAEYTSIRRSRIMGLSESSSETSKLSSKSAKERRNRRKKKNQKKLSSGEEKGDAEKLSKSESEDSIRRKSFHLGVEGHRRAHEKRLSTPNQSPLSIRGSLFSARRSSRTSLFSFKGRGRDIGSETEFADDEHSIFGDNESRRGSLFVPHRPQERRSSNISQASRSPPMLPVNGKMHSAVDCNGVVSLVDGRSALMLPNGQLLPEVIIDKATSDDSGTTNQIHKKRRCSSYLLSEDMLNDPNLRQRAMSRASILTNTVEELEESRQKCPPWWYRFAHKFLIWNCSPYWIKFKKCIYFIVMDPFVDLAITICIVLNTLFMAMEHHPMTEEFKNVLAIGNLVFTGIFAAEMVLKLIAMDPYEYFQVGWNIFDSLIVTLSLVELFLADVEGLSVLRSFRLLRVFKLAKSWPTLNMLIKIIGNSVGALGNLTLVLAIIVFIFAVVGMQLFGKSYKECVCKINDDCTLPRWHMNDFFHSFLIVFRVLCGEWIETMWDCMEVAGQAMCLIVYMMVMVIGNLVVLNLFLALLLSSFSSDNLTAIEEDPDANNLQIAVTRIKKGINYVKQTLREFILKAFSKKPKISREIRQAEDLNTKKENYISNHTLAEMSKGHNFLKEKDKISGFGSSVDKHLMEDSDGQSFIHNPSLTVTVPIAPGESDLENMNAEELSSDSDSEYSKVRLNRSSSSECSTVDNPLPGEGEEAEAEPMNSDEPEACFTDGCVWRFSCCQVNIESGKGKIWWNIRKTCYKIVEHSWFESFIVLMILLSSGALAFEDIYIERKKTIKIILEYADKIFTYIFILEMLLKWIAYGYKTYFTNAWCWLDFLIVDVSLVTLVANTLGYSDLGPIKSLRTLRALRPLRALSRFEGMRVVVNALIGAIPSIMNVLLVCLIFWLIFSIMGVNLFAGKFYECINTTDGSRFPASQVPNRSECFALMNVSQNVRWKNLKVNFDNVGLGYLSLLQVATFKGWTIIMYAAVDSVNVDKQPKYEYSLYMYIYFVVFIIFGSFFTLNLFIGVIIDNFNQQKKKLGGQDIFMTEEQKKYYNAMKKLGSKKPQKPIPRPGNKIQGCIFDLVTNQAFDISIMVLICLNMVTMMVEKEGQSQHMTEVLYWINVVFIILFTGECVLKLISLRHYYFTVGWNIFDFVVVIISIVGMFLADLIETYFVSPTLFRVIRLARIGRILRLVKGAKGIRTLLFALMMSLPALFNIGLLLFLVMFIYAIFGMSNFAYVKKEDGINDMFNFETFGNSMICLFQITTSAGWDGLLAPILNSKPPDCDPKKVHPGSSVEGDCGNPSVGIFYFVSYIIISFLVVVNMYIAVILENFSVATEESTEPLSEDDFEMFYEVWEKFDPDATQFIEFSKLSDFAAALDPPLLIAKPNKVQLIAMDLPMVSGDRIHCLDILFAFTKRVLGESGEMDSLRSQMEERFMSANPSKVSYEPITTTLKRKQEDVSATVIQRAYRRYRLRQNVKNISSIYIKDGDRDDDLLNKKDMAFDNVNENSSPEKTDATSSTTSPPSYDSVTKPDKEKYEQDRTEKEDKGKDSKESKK
Briefly: Nav1.7 block, PatchXpress 7000 automated whole-cell voltage clamp, estimated IC50 (EIC50). In kind it is cell-based. The following applies: PatchXpress platform; hSCN9A HEK cells held at V1/2 of inactivation; estimated IC50.
What is called IC50 is the concentration at which inhibition is half-maximal. `N#Cc1cc(S(=O)(=O)Nc2ncns2)ccc1Oc1ccc(Cl)cc1-c1ccnn1CCO` [Example 90, 4-(4-chloro-2-(1-(2-hydroxyethyl)-1H-pyrazol-5-yl)phenoxy)-3-cyano-N-(1,2,4-thiadiazol-5-yl)benzenesulfonamide]: the IC50 was 100 nM.
On to `Cc1cccc(-c2ccc(OC(F)(F)F)cc2)c1Oc1ccc(S(=O)(=O)Nc2ncns2)cc1C#N` [Example 40, 3-cyano-4-{[3-methyl-4′-(trifluoromethoxy)biphenyl-2-yl]oxy}-N-1,2,4-thiadiazol-5-ylbenzenesulfonamide], for which the IC50 was 5740 nM.
As for `N#Cc1cc(S(=O)(=O)Nc2cnoc2)ccc1Oc1ccccc1-c1ccccc1` [Example 108, 4-(biphenyl-2-yloxy)-3-cyano-N-isoxazol-4-ylbenzenesulfonamide], the IC50 is over 10000 nM.

Staying with this assay, now noted: estimated IC50; hSCN9A HEK cells, PatchXpress platform; Examples 283-814.
Turning to `Cn1nccc1-c1ccc(C(F)(F)F)cc1Oc1ccc(S(=O)(=O)Nc2nccs2)cc1C#N` [Example 699, 3-cyano-4-[2-(1-methyl-1H-pyrazol-5-yl)-5-(trifluoromethyl)phenoxy]-N-1,3-thiazol-2-ylbenzenesulfonamide], the IC50 was 140 nM.
Take `Cn1nccc1-c1cc(OC(F)(F)F)ccc1Oc1ccc(S(=O)(=O)Nc2nccs2)cc1F` [Example 365, 3-fluoro-4-[2-(1-methyl-1H-pyrazol-5-yl)-4-(trifluoromethoxy)phenoxy]-N-1,3-thiazol-2-ylbenzenesulfonamide]: the IC50 was 69 nM.
As to `Cn1cnnc1-c1cc(Cl)ccc1Oc1ccc(S(=O)(=O)Nc2nccs2)cc1F` [Example 306, 4-[4-chloro-2-(4-methyl-4H-1,2,4-triazol-3-yl)phenoxy]-3-fluoro-N-1,3-thiazol-2-ylbenzenesulfonamide], the IC50 was over 1000 nM.
With `Cn1ccc(-c2cc(Cl)ccc2Oc2ccc(S(=O)(=O)Nc3ncns3)cc2C#N)n1` [Example 286, 4-[4-chloro-2-(1-methyl-1H-pyrazol-3-yl)phenoxy]-3-cyano-N-1,2,4-thiadiazol-5-ylbenzenesulfonamide], the IC50 is 530 nM.
Consider `Cn1nc(C(F)(F)F)cc1-c1ccc(Oc2ccc(S(=O)(=O)Nc3nccs3)cc2C#N)c(Cl)c1` [Example 335, 4-{2-chloro-4-[1-methyl-3-(trifluoromethyl)-1H-pyrazol-5-yl]phenoxy}-3-cyano-N-1,3-thiazol-2-ylbenzenesulfonamide], for which the IC50 was 32 nM.
On to `O=S(=O)(Nc1cscn1)c1cc(Cl)c(Oc2ccc(C(F)(F)F)cc2-c2cncc(CO)c2)cc1F` [Example 689, 5-Chloro-2-fluoro-4-{2-[5-(hydroxymethyl)pyridin-3-yl]-4-(trifluoromethyl)phenoxy}-N-1,3-thiazol-4-ylbenzenesulfonamide], for which the IC50 is over 300 nM.
Take `CC(C)Oc1cc(-c2cc(F)ccc2Oc2ccc(S(=O)(=O)Nc3cscn3)cc2C#N)n(C)n1` [Example 396, 3-cyano-4-[4-fluoro-2-(3-isopropoxy-1-methyl-1H-pyrazol-5-yl)phenoxy]-N-1,3-thiazol-4-ylbenzenesulfonamide]: the IC50 is over 3000 nM.
Still for that read-out and setting: the same measure for `N#Cc1cc(S(=O)(=O)Nc2ncns2)ccc1Oc1cc(Cl)c(F)cc1-c1cn[nH]c1` [Example 754, 4-[5-chloro-4-fluoro-2-(1H-pyrazol-4-yl)phenoxy]-3-cyano-N-1,2,4-thiadiazol-5-ylbenzenesulfonamide]: 5.3 nM; for `N#Cc1cc(S(=O)(=O)Nc2cscn2)ccc1Oc1ccc(Cl)cc1-c1cccc(N)n1` [Example 766, 4-[2-(6-aminopyridin-2-yl)-4-chlorophenoxy]-3-cyano-N-1,3-thiazol-4-ylbenzenesulfonamide]: 500 nM.
In the case of `CC(C)c1cc(-n2cc(Cl)cn2)ccc1Oc1ccc(S(=O)(=O)Nc2nccs2)cc1C#N` [Example 353, 4-[4-(4-chloro-1H-pyrazol-1-yl)-2-isopropylphenoxy]-3-cyano-N-1,3-thiazol-2-ylbenzenesulfonamide], the IC50 is 220 nM.
Regarding `O=S(=O)(Nc1ncns1)c1cc(F)c(Oc2cc(Cl)c(F)cc2-c2ccn[nH]2)cc1F` [Example 753, 4-[5-chloro-4-fluoro-2-(1H-pyrazol-5-yl)phenoxy]-2,5-difluoro-N-1,2,4-thiadiazol-5-ylbenzenesulfonamide], the IC50 is 5.2 nM.
Take `O=S(=O)(Nc1ncns1)c1cc(F)c(Oc2cc(F)c(Cl)cc2-c2ccn[nH]2)cc1F` [Example 762, 4-[4-chloro-5-fluoro-2-(1H-pyrazol-5-yl)phenoxy]-2,5-difluoro-N-1,2,4-thiadiazol-5-ylbenzenesulfonamide]: the half-maximal inhibitory concentration (IC50) was 4.2 nM.
Same read-out and setting: to `Cn1nccc1-c1cc(Cl)ccc1Oc1ccc(S(=O)(=O)Nc2ccc(F)cn2)cc1C#N` [Example 608, 4-[4-chloro-2-(1-methyl-1H-pyrazol-5-yl)phenoxy]-3-cyano-N-(5-fluoropyridin-2-yl)benzenesulfonamide] belongs 400 nM.

The same assay, now with this note: estimated IC50; hSCN9A HEK cells, PatchXpress platform; Examples 815-1040.
For `O=S(=O)(Nc1ncns1)c1cc(F)c(Oc2ccc(OC(F)F)cc2-c2cn[nH]c2)cc1F` [Example 837, 4-[4-(difluoromethoxy)-2-(1H-pyrazol-4-yl)phenoxy]-2,5-difluoro-N-1,2,4-thiadiazol-5-ylbenzenesulfonamide], the IC50 was 5.8 nM.
The same measure, in the same setting: to `Cc1cc(S(=O)(=O)Nc2ncns2)c(F)cc1Oc1ccc(C(F)(F)F)cc1-c1ccnnc1` [Example 978, 2-fluoro-5-methyl-4-[2-pyridazin-4-yl-4-(trifluoromethyl)phenoxy]-N-1,2,4-thiadiazol-5-ylbenzenesulfonamide] belongs 4.6 nM; to `Cn1nccc1-c1cc(Cl)ccc1Oc1ccc(S(=O)(=O)Nc2cccnn2)cc1C#N` [Example 915, 4-[4-chloro-2-(1-methyl-1H-pyrazol-5-yl)phenoxy]-3-cyano-N-pyridazin-3-ylbenzenesulfonamide], 1600 nM; to `Cc1nsc(NS(=O)(=O)c2cc(Cl)c(Oc3ccc(Cl)cc3-c3c[nH]nc3N)cc2F)n1` [Example 872, 4-[2-(3-amino-1H-pyrazol-4-yl)-4-chlorophenoxy]-5-chloro-2-fluoro-N-(3-methyl-1,2,4-thiadiazol-5-yl)benzenesulfonamide], 12 nM.
Same read-out and setting: to `Cc1ncccc1-c1cc(Cl)ccc1Oc1ccc(S(=O)(=O)Nc2ncns2)cc1C#N` [Example 1009, 4-[4-chloro-2-(2-methylpyridin-3-yl)phenoxy]-3-cyano-N-1,2,4-thiadiazol-5-ylbenzenesulfonamide] belongs 21 nM; to `N#Cc1cc(S(=O)(=O)Nc2ncns2)ccc1Oc1ccc(Cl)cc1-c1cccc(C(=O)NC2CC2)c1` [Example 864, 5′-chloro-2′-{2-cyano-4-[(1,2,4-thiadiazol-5-ylamino)sulfonyl]phenoxy}-N-cyclopropylbiphenyl-3-carboxamide], 4.4 nM; to `Cc1[nH]ncc1-c1cc(Cl)ccc1Oc1cc(F)c(S(=O)(=O)Nc2nncs2)cc1Cl` [Example 816, 5-chloro-4-[4-chloro-2-(5-methyl-1H-pyrazol-4-yl)phenoxy]-2-fluoro-N-1,3,4-thiadiazol-2-ylbenzenesulfonamide], 11 nM.
